Measurements from patent US20240279613A1, “METHOD OF PRODUCING ENTEROENDOCRINE CELL, ENTEROENDOCRINE CELL DERIVED FROM PLURIPOTENT STEM CELL, CULTURE MEDIUM OR CULTURE MEDIUM KIT, AND USE THEREOF” (FUJIFILM Corporation, priority 2021, published 2024).

Legend:
[1] = test system: Human iPS cell-derived intestinal epithelial cells F-hiSIEC; experiment: Gene expression of EEC markers in F-hiSIEC cells cultured with LY411575 or DAPT added (culture media of Table 2, real-time PCR, Day 9); format: cell-based
From the text: (§1) Human iPS cell-derived intestinal epithelial cells (including intestinal stem cells, LGR5+ cells) F-hiSIEC™ (FUJIFILM Corporation) were thawed on the day 0 and seeded at 1.0×10^6 cells/well on a cell culture insert coated with Matrigel™ (Corning Incorporated) by using F-hiSIEC™ Seeding Medium (FUJIFILM Corporation), and then from the next day, the culture medium was exchanged every other day with each culture medium (culture medium compositions 7 to 13) in Table 2. Coating, seeding, and culture medium exchange were carried out according to the F-hiSIEC instruction manual to obtain a cell sheet. The total RNA was extracted from the cells on the Day 9. For RNA extraction, the cells were lysed with Qiazol (QIAGEN), 20% of chloroform was added thereto, mixed, and centrifuged at 12,000 g for 10 minutes to obtain a solution, and the supernatant of the solution was recovered. Total RNA was extracted from the supernatant according to the manual using an RNeasy mini kit (QIAGEN). cDNA was synthesized from the total RNA using a High Capacity RNA-to-cDNA kit (Applied Biosystems) according to the manual. The obtained cDNA was subjected to the measurement of the gene expression level by using a ViiA7 real-time PCR system (Applied Biosystems) with a Taqman Gene Expression Assay system and a Taqman Gene Expression Master Mix (Applied Biosystems). The Taqman Assay ID used were as follows: 18s: 03003631_g1. CHGA: Hs00900370_m1. PYY: Hs00373890_g1, and NEUROG3: Hs01875204_s1.
(§2) Gene expression levels for comparison are indicated in terms of relative value in a case where the expression in the control group cultured in the F-hiSIEC Culture Medium is corrected with the expression level of the internal standard gene 18S according to the […] and then is set to 1.

[2] = test system: Human iPS cell-derived intestinal epithelial cells F-hiSIEC; experiment: Gene expression of EEC markers in F-hiSIEC cells cultured in culture media of Table 1 (real-time PCR, Day 9); format: cell-based; conditions: LY411575 (composition 4, 1 μmol/L, no EGF) compared with DAPT (composition 6, 10 μmol/L)
From the text: as §1, with “compositions 1” for “compositions 7”, “to 6)” for “to 13)”, “Table 1.” for “Table 2.”, “18s: 03003631_g1,” for “18s: 03003631_g1.”, “CHGA: Hs00900370_m1, TPH1: Hs00188220_m1,” for “CHGA: Hs00900370_m1.”, “and REG4: Hs00230746_m1.” for “and NEUROG3: Hs01875204_s1.”
as §2

[3] = LY411575 2 μmol/L addition group (culture medium composition 11), among compositions 7 to 13
[4] = LY411575 addition groups (0.5 to 2.0 μmol/L) compared with DAPT addition groups (5 to 10 μmol/L), no EGF, FIG. 2

**Q.** With `C[C@H](NC(=O)[C@@H](O)c1cc(F)cc(F)c1)C(=O)N[C@@H]1C(=O)N(C)c2ccccc2-c2ccccc21` [LY411575] as the molecule, how does the “expression level of CHGA” value [1, 3] read?
**A.** Its value is “highest”.

**Q.** What about the “expression level of NEUROG3” value [1, 3] of the same molecule?
**A.** The value was “highest”.

**Q.** What about the “expression level of PYY” value [1, 3] of the same molecule?
**A.** The value was “highest”.

**Q.** What about the “expression of CHGA” value [1, 4] of the same molecule?
**A.** The value was “high”.

**Q.** What about the “expression of PYY” value [1, 4] of the same molecule?
**A.** The value was “remarkably high”.

**Q.** What about the “expression of CHGA” value [2] of the same molecule?
**A.** Its value is “remarkably high”.

**Q.** What about the “expression of PYY” value [2] of the same molecule?
**A.** The value was “remarkably high”.

**Q.** And the “expression of Reg4” value [2]?
**A.** The value was “remarkably high”.

**Q.** And the “expression of TPH1” value [2]?
**A.** The value was “remarkably high”.
